This is an account of results in patent publication US11999746B2, “Compounds” (GlaxoSmithKline Intellectual Property Development Limited, priority 2014, dated 2024).

For assay [1], the target named is T1, recombinant human Lp-PLA2 (Homo sapiens, UniProt Q13093).
T1 sequence (Q13093 22-441): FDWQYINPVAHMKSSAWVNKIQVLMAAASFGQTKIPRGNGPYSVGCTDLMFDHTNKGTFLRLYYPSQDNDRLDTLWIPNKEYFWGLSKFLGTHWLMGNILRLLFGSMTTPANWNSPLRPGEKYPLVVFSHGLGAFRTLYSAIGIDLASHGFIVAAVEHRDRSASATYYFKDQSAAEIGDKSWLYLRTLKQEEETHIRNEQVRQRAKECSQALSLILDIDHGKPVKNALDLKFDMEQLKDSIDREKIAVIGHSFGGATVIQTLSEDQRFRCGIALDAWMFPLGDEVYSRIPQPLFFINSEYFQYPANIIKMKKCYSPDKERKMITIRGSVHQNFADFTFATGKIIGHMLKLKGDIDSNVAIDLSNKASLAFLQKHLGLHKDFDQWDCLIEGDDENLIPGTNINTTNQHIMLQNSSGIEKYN
In words: (1a) PED6 assay, recombinant human Lp-PLA2 (rhLp-PLA2). In kind it is biochemical. As to conditions: Examples 1-167 and 413-430 were tested here, one experiment or average of multiple experiments, read-out: rhLp-PLA2 (pIC50) (converted). The procedure, abridged: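 PED6 (2 μM final after 1:1 addition of 4 μM stock) cleavage by rhLp-PLA2 (4 nM working solution) in 50 mM HEPES pH 7.4, 150 mM NaCl, 1 mM CHAPS; compounds preincubated with enzyme 30 minutes, reaction 20 min at room temperature. Fluorescence at ex 480/em 540; pIC50 from curve fit.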

A further assay deals with T2, Lp-PLA2 in human plasma (Homo sapiens, UniProt Q13093).
T2 construct: from tissue; host or cells: pooled human plasma
T2 sequence (Q13093 22-441): T1 sequence (Q13093 22-441)
Put plainly: (3a) Lp-PLA2 human plasma Thio-PAF assay. As to conditions: (3a) Thio-PAF assay, pooled human plasma; Examples 1-265 and 413-430 were tested here; read-out: pIC50 in the Lp-PLA2 human plasma assay (converted). The class given is biochemical. The procedure, abridged: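 Endogenous Lp-PLA2 activity in frozen pooled human plasma measured as thiol release from 2-thio-PAF, detected by CPM fluorescence (ex 380/em 485). Compound preincubation 30 min; 2-min reaction in HEPES pH 7.4 buffer with NEM, stopped with 5% TFA, read 40 min later at room temperature; values as pIC50.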

Regarding `Cc1ccc(Oc2c(F)cc(COc3cc4n(c(=O)n3)C[C@@H]3COCN43)cc2F)cn1` [Example E157, (R)-6-((3,5-difluoro-4-((6-methylpyridin-3-yl)oxy)benzyl)oxy)-10,10a-dihydro-1H-oxazolo[3′,4′:3,4]imidazo[1,2-c]pyrimidin-8(3H)-one], the IC50 in assay [1] was at most 100 nM; at Lp-PLA2 in human plasma, at most 10000 nM.

Regarding `O=c1nc(OCc2cc(F)c(F)c(F)c2)cc2n1C[C@@H]1CCCCN21` [Example E32, (S)-3-((3,4,5-Trifluorobenzyl)oxy)-6,7,8,9,9a,10-hexahydro-1H-pyrido[1′,2′:3,4]imidazo[1,2-c]pyrimidin-1-one], the results for the IC50 (in assay [1]; at Lp-PLA2 in human plasma) were at most 100 nM and at most 10000 nM, respectively.

On to `O=c1nc(NCc2cccc(F)c2)cc2n1C[C@H]1CCCN21` [Example E104, (R)-3-((3-fluorobenzyl)amino)-7,8,8a,9-tetrahydropyrrolo[1′,2′:3,4]imidazo[1,2-c]pyrimidin-1(6H)-one], for which the figures for the IC50 (in assay [1]; at Lp-PLA2 in human plasma) were at most 100 nM and at most 10000 nM, respectively.

Turning to `O=c1nc(OCc2ccc(Oc3ccc(C(F)(F)F)nc3)c(F)c2)cc2n1CC1CCCCN21` (centres unmarked) [Example E22, 3-((3-Fluoro-4-((6-(trifluoromethyl)pyridin-3-yl)oxy)benzyl)oxy)-6,7,8,9,9a,10-hexahydro-1H-pyrido[1′,2′:3,4]imidazo[1,2-c]pyrimidin-1-one], the figures for the IC50 (in assay [1]; at Lp-PLA2 in human plasma) were at most 1 nM and at most 10000 nM, respectively.

As for `O=c1nc(OCc2ccc(F)cc2F)cc2n1C[C@H]1CCCCN21` [Example E55, (R)-3-((2,4-Difluorobenzyl)oxy)-6,7,8,9,9a,10-hexahydro-1H-pyrido[1′,2′:3,4]imidazo[1,2-c] pyrimidin-1-one], the IC50 in assay [1] is at most 100 nM; on Lp-PLA2 in human plasma, at most 10000 nM.

On to `N#Cc1cc(COc2cc3n(c(=O)n2)CC2CCCCN32)ccc1Oc1ccc(C(F)(F)F)cc1` (centres unmarked) [Example E23, 5-(((1-Oxo-6,7,8,9,9a,10-hexahydro-1H-pyrido[1′,2′:3,4]imidazo[1,2-c]pyrimidin-3-yl)oxy)methyl)-2-(4-(trifluoromethyl)phenoxy)benzonitrile], for which the IC50 in assay [1] is at most 1 nM; at Lp-PLA2 in human plasma it was at most 100 nM.

Turning to `N#Cc1cc(COc2cc3n(c(=O)n2)CC2CCCN32)ccc1Oc1ccc(Cl)c(C(F)(F)F)c1` (centres unmarked) [Example E77, 2-(4-Chloro-3-(trifluoromethyl)phenoxy)-5-(((1-oxo-1,6,7,8,8a,9-hexahydropyrrolo[1,2′:3,4]imidazo[1,2-c]pyrimidin-3-yl)oxy)methyl)benzonitrile], the IC50 in assay [1] is at most 1 nM; on Lp-PLA2 in human plasma, at most 100 nM.

In the case of `Cn1cc(Oc2c(F)cc(COc3cc4n(c(=O)n3)C[C@@H]3CCOCN43)cc2F)cn1` [Example E136, (S)-3-((3,5-difluoro-4-((1-methyl-1H-pyrazol-4-yl)oxy)benzyl)oxy)-8,9,9a,10-tetrahydropyrimdo[6′,1′:2,3]imidazo[1,5-c][1,3]oxazin-1(6H)-one], the IC50 was at most 100 nM in assay [1] and at most 10000 nM at Lp-PLA2 in human plasma.

Regarding `O=c1nc(OCc2cc(F)c(CCCF)c(F)c2)cc2n1CC1CCCN21` (centres unmarked) [Example E99, 3-((3,5-Difluoro-4-(3-fluoropropyl)benzyl)oxy)-7,8,8a,9-tetrahydropyrrolo[1′,2′:3,4] imidazo[1,2-c]pyrimidin-1(6H)-one], the IC50 is at most 100 nM in assay [1] and at most 10000 nM on Lp-PLA2 in human plasma.

Consider `O=c1nc(OCc2ccc(F)cc2F)cc2n1C[C@@H]1CCCCN21` [Example E57, (S)-3-((2,4-Difluorobenzyl)oxy)-6,7,8,9,9a,10-hexahydro-1H-pyrido[1′,2′:3,4]imidazo[1,2-c] pyrimidin-1-one], for which the IC50 in assay [1] is at most 100 nM; on Lp-PLA2 in human plasma, at most 10000 nM.
